Here are results for 13 molecules from PubChem BioAssay (NCI).

What all share (assay): inhibition of tumour cell growth, NCI panel, 48 h
Assay [1] deals with OVCAR-8 ovarian.
Assay [2] has as its system HCT-116 colon.
Assay [3] deals with 786-0 renal.
The subject of assay [4] is CAKI-1 renal.
The subject of assay [5] is RPMI-8226 leukemia.
Assay [6] has as its system OVCAR-5 ovarian.
In assay [7] the test system is U251 CNS.
Assay [8] deals with SK-MEL-2 melanoma.
The test system of assay [9] is DU-145 prostate.
The test system of assay [10] is HT29 colon.
For assay [11], the system named is SK-MEL-28 melanoma.
For assay [12], the system named is SN12C renal.

The structures appear in SMILES notation.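 Cells were grown in 96-well plates and exposed to each compound for 48 hours at five concentrations; endpoints were interpolated linearly between bracketing concentrations, or set to the highest concentration if not reached. Definition used: TGI = concentration required for complete inhibition of growth.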

On to `CCC(C=O)P1(=O)OC(C)(C)CN1C(C)(C)C` (stereo not given), for which the TGI in [1], in assay [2], in assay [3], in [4], in [5] and in assay [6] was greater than 100 µM in each case. Further, the TGI in assay [7], in assay [8], in assay [9] and in assay [10] was greater than 100 µM throughout.
`O=C(CSc1nnc(Cc2ccccc2)o1)Nc1ccccc1`: the TGI in [1], in [11], in assay [2], in [3], in [12] and in assay [5] was greater than 100 µM each time. Also, the TGI in assay [6], in assay [7], in assay [8] and in [10] was greater than 100 µM throughout.
On to `O=C1C(Cl)=C(Nc2ccc(S(=O)(=O)O)cc2)C(=O)c2ccccc21`, for which the TGI in assay [1] is 90.6 µM; in assay [11], 83.2 µM; in [2] it was greater than 100 µM; in [3], 84.6 µM; in assay [4], greater than 100 µM; in [5], 70.1 µM. For the same molecule, the TGI in assay [6] was greater than 100 µM; in [7], greater than 100 µM; in [8], 59.6 µM; in assay [9], 36.5 µM; in assay [10], greater than 100 µM.
On to `CC(=O)Oc1cc2c(cc1OC(C)=O)OCC(c1ccccc1)C2` (stereo not given), for which the TGI in [1] stood at 73.5 µM; in assay [11] it was 53.1 µM; in assay [2] it was 57.4 µM; in [4], 39.2 µM; in [12], 56.6 µM; in [5], 54.5 µM. The TGI in [6] was 61.7 µM; in [7], 29.5 µM; in assay [8] it was 54.7 µM; in assay [10] it was 98.3 µM.
Consider `CCC(CCCN)Nc1cc(OC)cc2c(C)ccnc12` (stereo not given), for which the TGI in assay [1] is 42.2 µM; in assay [11], 30.6 µM; in assay [2], 37.2 µM; in [3], 28.8 µM; in [4], 29.5 µM; in assay [12], 53.5 µM. Also, the TGI in assay [6] worked out at 32.5 µM; in assay [8], 41.5 µM; in assay [9], 35.5 µM; in assay [10], 28.6 µM.
Turning to `CCc1nn(CN2CCOCC2)c(=S)n1/N=C/c1ccc(-c2ccc(Cl)cc2)o1`, the TGI in assay [1], in assay [11], in assay [2], in [3], in assay [4] and in assay [5] was greater than 100 µM each time. In addition, the TGI in assay [6], in assay [7], in [8], in [9] and in [10] was greater than 100 µM throughout.
As for `O=c1[nH]cc(COCCCO)c(=O)[nH]1`, the TGI in assay [1], in [11], in assay [2], in [3], in [4] and in assay [12] was greater than 100 µM in each case. Also, the TGI in assay [5], in assay [6], in [7], in [8] and in assay [10] was greater than 100 µM each time.
Turning to `CC(=O)CN(Cc1cc(C)c2c(c1)c1ccccc1n2Cc1ccccc1)S(=O)(=O)c1ccc(C)cc1`, the TGI in assay [1], in assay [11], in assay [2], in [3], in [4] and in [5] was greater than 100 µM throughout. Moreover, the TGI in assay [8] and in assay [10] was greater than 100 µM in each case.
For `COC(=O)c1onc(-c2c(OC)cc(OC)cc2OC)c1C(=O)OC`, the TGI in [1], in assay [11], in assay [2], in [3], in assay [4] and in assay [5] was greater than 100 µM throughout. Also, the TGI in [6], in assay [7], in assay [8] and in assay [10] was greater than 100 µM throughout.
Consider `CCCNC(=O)C(C)C1CCC2(C)C=CC(=O)C(C)=C2C1O` (stereo not given), for which the TGI in assay [1], in [11], in assay [2], in assay [4], in assay [12] and in assay [5] was greater than 100 µM in each case. Further, the TGI in assay [6], in assay [7], in [8] and in assay [10] was greater than 100 µM each time.
Consider `CC1(C)OC(=O)C(C#N)=C1/C=C/c1coc2ccc(Cl)cc2c1=O`, for which the TGI in [1] is 74.6 µM; in assay [11], greater than 100 µM; in assay [2], greater than 100 µM; in assay [3], greater than 100 µM; in assay [4], 57.5 µM; in assay [12], 96 µM. Moreover, the TGI is greater than 100 µM in assay [5], greater than 100 µM in [6], greater than 100 µM in assay [7] and 50.9 µM in assay [8].
Regarding `COc1ccc(C2SCC(=O)N2c2ccc(-c3ccc(-n4c(-c5ccccc5)nc5ccccc5c4=O)cc3)cc2)cc1OC` (stereo not given), the TGI in assay [1], in [11], in [2], in assay [3], in [4] and in [12] was greater than 100 µM each time. In addition, the TGI in [5], in assay [7], in assay [9] and in [10] was greater than 100 µM each time.
Regarding `C=CC1(NC(=O)c2ccccc2)CCC(C(C)(C)C)CC1` (stereo not given), the TGI is greater than 100 µM in assay [1]; greater than 100 µM in assay [11]; 55.1 µM in assay [2]; greater than 61.4 µM in assay [12]; greater than 100 µM in assay [5]; greater than 100 µM in assay [6]. The TGI in assay [7] came to 53.8 µM; in assay [8] it was 56.6 µM; in assay [10], 55 µM.
